Results from patent US9386787B2, “Preparations for oral consumption” (Symrise AG, priority 2012, dated 2016).
Marks after values point to notes of the source that are not given here.

Experiment: multiple time-intensity profiling (mTIP) of astringency, trained panel
Format: in vivo
Details: 750 mg/kg EGCG + 125 mg/kg ascorbic acid; for Reduction (%) of astringency: 300 μg/kg Frescolat ML vs without; for Astringency with Frescolat ML: 300 μg/kg Frescolat ML
Experimental: In order to evaluate different attributes of a sample simultaneously over a particular period of time, the method of so-called “multiple time-intensity profiling” (mITP) was used. This descriptive method combines the advantages of the “dual-attribute time-intensity” (DATI) method, in which the intensities of two descriptors can be plotted on a two-dimensional plane, and the “time-intensity profiling” (TIP) method, in which more than two descriptors are evaluated in succession over time. In each mTIP test, trained panellists (n=15) are asked to take 2 mouthfuls (each 5 ml) of the sample to be evaluated, to wet the entire oral cavity therewith, and then to spit the sample out again. […] A parallel evaluation of more than two attributes is thus possible. The intensities are read after the first 10 seconds and then every 20 seconds over a period of 70 seconds. The data produced are analysed by means of Compusense® five and represented graphically as a time-intensity curve. In order to show the astringency-masking effect of L-lactic acid L-menthyl ester (Frescolat ML), the panel was trained inter alia with an aqueous test solution comprising 750 mg/kg of epigallocatechin gallate and 125 mg/kg of ascorbic acid. The panellists were asked to evaluate the test solution in respect of its bitterness and astringency using the above-described method. In a subsequent test, the two descriptors were evaluated on the one hand for the above-described test solution and on the other hand for the test solution plus 300 μg/kg of Frescolat ML. The results of both time-intensity curves were evaluated statistically and compared with one another in order to determine an astringency-masking effect of Frescolat® ML. For the significance calculation, the Student t-test, duplicated with paired random samples, was used.

Q: What does the source list for CC(C)[C@@H]1CC[C@@H](C)C[C@H]1OC(=O)[C@H](C)O [Frescolat ML, L-lactic acid L-menthyl ester]?
A: Reduction (%) of astringency (time 0 sec): −0.49%; Reduction (%) of astringency (time 10 sec): −14.29%; Reduction (%) of astringency (time 30 sec, significant (p < 0.1)): −20.58* %; Reduction (%) of astringency (time 50 sec, significant (p < 0.1)): −22.24* %; Reduction (%) of astringency (time 70 sec): −17.82%; Astringency with Frescolat ML (time 0 sec): 4.81; Astringency with Frescolat ML (time 10 sec): 4.11; Astringency with Frescolat ML (time 30 sec): 3.38; Astringency with Frescolat ML (time 50 sec): 2.58; Astringency with Frescolat ML (time 70 sec): 2.04
